Laboratory results: US20210395309A1, “PEPTIDE-DRUG CONJUGATES” (Hong Kong Baptist University, priority 2020, published 2021)
pIC50: −log10 of the molar value. “Also recorded” adds a separate entry of the source. Read-outs that look alike come from different tables or passages of the source. Where a SMILES comes first, the peptide text is derived from it. The star is where a group is joined. Paclitaxel(2'-O-succinyl) = CC(=O)O[C@H]1C(=O)[C@@]2(C)[C@H]([C@H](OC(=O)c3ccccc3)[C@]3(O)C[C@H](OC(=O)[C@H](OC(=O)CCC(=O)*)[C@@H](NC(=O)c4ccccc4)c4ccccc4)C(C)=C1C3(C)C)[C@]1(OC(C)=O)CO[C@@H]1C[C@@H]2O

Columns and labels:
[1] = system: HEK293T (ACE-negative) cells; assay: MTT cytotoxicity assay in ACE-negative HEK293T; format: cell-based, human; details: 48 h, mean (95% CI)
Protocol: (§1) MTT assays were performed to study the in vitro antitumor effects of BPP-PTX conjugate as well as free PTX and BPP in various ACE-negative and ACE-positive cell lines. Briefly, the cells (5,000 per well) were seeded in 96-well plates 24 h before treatment. The different drug formulations at concentrations of 0.01-1000 nM PTX or 0.01-1000 nM BPP-PTX and free BPP were added. The cells were cultured for another 48 h. 20 μL of 3-(4,5-dimethylthiazol-2-yl)-2,5-diphenyltetrazolium bromide (MTT) solution (5 mg/mL) was added. The cells were further cultured for 4 h, the medium was removed, and 150 μL DMSO was added to dissolve the MTT-formazan crystals. The optical density (O.D.) values for the untreated group were set as 100% viability. Independent experiments were performed in triplicate.
(§2) Each experiment was performed at least three times. GraphPad Prism 6.0 software was used for IC50 calculations and statistical analyses, including student t-test and two-way ANOVA.

[2] = system: MDA-MB-231 (ACE-positive) cells; assay: MTT cytotoxicity assay in ACE-positive TNBC MDA-MB-231; format: cell-based, human; details: 48 h, mean (95% CI)
Protocol: as §1, §2

[3] = system: MDA-MB-468 (ACE-positive) cells; assay: MTT cytotoxicity assay in ACE-positive TNBC MDA-MB-468; format: cell-based, human; details: 48 h, mean (95% CI)
Protocol: as §1, §2

[4] = for body weight decrease compared with control mice: day 28
Protocol: Mice were kept at room temperature 25° C. with an alternating 12 h light-dark cycle and were allowed access to food and water. […] MDA-MB-468 cells (5×10^6 cells per mouse) were suspended in PBS and inoculated subcutaneously into the fourth mammary fat pad of athymic nude mice. Tumor growth was monitored every four days by measuring two perpendicular diameters with calipers. […] The tumors were measured with calipers every day, and tumor volumes were calculated using the following formula: a^2×b×0.4, where “a” is the smallest diameter and “b” is the diameter perpendicular to “a”. At the end of the experiment, the mice were sacrificed, and the tumor weights of each animal were analyzed. Blood samples (˜100 μL) were taken from the retro-orbital plexus in heparinized capillary tubes (Modulohm A/S, Herlev, Denmark). Total white blood cell counts were determined manually for each sample using a Neubauer chamber (GMBH, Wertheim, Germany).

HEK293T-ACE cells = assay: Cytotoxicity in ACE-overexpressed HEK293T-ACE versus control HEK293T; format: cell-based, human; details: 1-, 10-, and 100 nM; ACE plasmid vs empty plasmid
Protocol: (§3) ACE siRNA (h2) (sc-270350) and Control siRNA-A (sc-37007) were purchased from Santa Cruz Biotechnology, Inc. The ACE expression plasmid was bought from Gen Script (Nanjing) Co., Ltd. Transfections were carried out using Lipofectamine 2000 (Invitrogen) according to the manufacturer's instructions.
as §1
(§4) Next, it was determined whether the cytotoxicity of BPP-PTX was mediated by ACE or not. First, the ACE protein was artificially overexpressed in HEK293T cell lines by transfecting ACE-containing plasmid, and the empty plasmid was transfected as a control. […]

MDA-MB-231-siACE cells = assay: Cytotoxicity in ACE-knockdown MDA-MB-231-siACE versus MDA-MB-231-siCtr; format: cell-based, human; details: 10- and 100 nM
Protocol: as §3, §1, §4

MDA-MB-468-siACE cells = assay: Cytotoxicity in ACE-knockdown MDA-MB-468-siACE versus MDA-MB-468-siCtr; format: cell-based, human; details: 10- and 100 nM
Protocol: as §3, §1, §4

MDA-MB-231 cells = assay: Annexin V-FITC/PI apoptosis assay, flow cytometry; format: cell-based, human; details: 10 nM, 48 h
Protocol: (§5) 1×10^5 MDA-MB-231 or 1.5×10^5 MDA-MB-468 cells per well were cultured in 6-well plates. After attachment, cells were treated with DMSO or 10 nM PTX or BPP-PTX for 48 h and stained with Annexin V (AV) conjugated with FITC and propidium iodide (PI) using the Annexin V-FITC Apoptosis Assay Kit following the manufacturer's instructions. Stained cells were analyzed with the Cyflow Cube flow cytometer (PARTEC, Germany). Data were analyzed using FlowJo 7.6.5 software.

MDA-MB-468 cells [5] = assay: Annexin V-FITC/PI apoptosis assay, flow cytometry; format: cell-based, human; details: 10 nM, 48 h
Protocol: as §5

[6] = system: MDA-MB-231 and MDA-MB-468 cells; assay: DAPI staining of nuclei for apoptosis; format: cell-based, human; details: 10 nM
Protocol: The occurrence of apoptosis was evaluated by DAPI staining. Cells (4.0×10^5 cells/well) were seeded and incubated with 10 nM PTX or BPP-PTX for 24 h. Following treatment, the cells were washed with phosphate-buffered saline (PBS) and fixed with 4% paraformaldehyde (Sigma-Aldrich) for 15 min at room temperature 25° C., and then stained in the dark with a DAPI solution for 10 min at room temperature 25° C. Thereafter, the cells were washed with PBS and photographed under an inverted fluorescence microscope (Olympus IX71; Olympus, Tokyo, Japan).

MDA-MB-468 cells [7] = assay: TNBC orthotopic mouse model, tumor growth; format: in vivo
Protocol: To test the in vivo efficacy and toxicity of BPP-PTX, an orthotopic mouse model was established. ACE-positive MDA-MB-468 cells were injected orthotopically in the mammary fat pads of the female athymic nude mouse. Once mice attained palpable tumors, they were randomly divided into four groups and treated for 28 days with PBS, free PTX (2.4 μmol/kg), low dose BPP-PTX (2.4 μmol/kg), and high-dose BPP-PTX (9.6 μmol/kg), every 4 days by intraperitoneal injection (i.p.). Tumor growth was monitored by measuring tumor volume every 4 days with a caliper rule. On day 4, after the first injection, the effect of the drugs was not yet detectable since average tumor volumes, as measured with the caliper, were similar in the four groups of mice. […] On day 28, the average tumor volume of mice treated with low-dose BPP-PTX had decreased by about 15% compared to animals treated with free PTX, and by 54% compared to control animals (PBS). Meanwhile, the average tumor volume of mice treated with high-dose BPP-PTX, had decreased by about 30% compared to animals treated with free PTX, and by 62% compared to control animals (FIGS. 5A and 5B). Consistently, the average tumor weight of mice treated with low-dose BPP-PTX was 0.20 g (0.17, 0.24) lower than that of mice treated with free PTX (0.26 g (0.21, 0.31)) and control mice (0.43 g (0.37, 0.49)).

| SMILES | pIC50 [1] | pIC50 [2] | pIC50 [3] | WBC count decrease after the 28-day treatment compared to before treatment ([4]; 2.4 μmol/kg i.p. every 4 days) | WBC count decrease after the 28-day treatment compared to before treatment ([4]; 9.6 μmol/kg i.p. every 4 days) [%] | body weight loss compared with control mice ([4]; day 0 to day 24, low dose 2.4 μmol/kg) | body weight decrease compared with control mice ([4]; 2.4 μmol/kg i.p. every 4 days) | body weight decrease compared with control mice ([4]; 9.6 μmol/kg i.p. every 4 days) [%] | pIC50 ([1]; Homo sapiens, HEK-293T) | pIC50 ([2]; Homo sapiens) | pIC50 ([3]; Homo sapiens) | cell variability in HEK293T-ACE compared with HEK293T (HEK293T-ACE cells) | cell variability in siACE cells compared with siCtr cells (MDA-MB-231-siACE cells) | cell variability in siACE cells compared with siCtr cells (MDA-MB-468-siACE cells) | apoptosis (MDA-MB-231 cells) | apoptosis (MDA-MB-468 cells [5]) | nuclei morphology (DAPI) [6] | average tumor weight (MDA-MB-468 cells [7]; end of 28-day treatment, 2.4 μmol/kg i.p. every 4 days) [g] | tumor growth compared with control mice (MDA-MB-468 cells [7]; i.p. every 4 days, 28 days, PTX 2.4 μmol/kg, BPP-PTX 2.4 and 9.6 μmol/kg) |
| --- | --- | --- | --- | --- | --- | --- | --- | --- | --- | --- | --- | --- | --- | --- | --- | --- | --- | --- | --- |
| CC[C@H](C)[C@H](NC(=O)[C@H](CCC(N)=O)NC(=O)[C@@H]1CCCN1C(=O)[C@H](CCCNC(=N)N)NC(=O)[C@@H]1CCCN1C(=O)[C@H](Cc1c[nH]c2ccccc12)NC(=O)[C@H](CCC(=O)O)NC(=O)CCC(=O)O[C@@H](C(=O)O[C@H]1C[C@@]2(O)[C@@H](OC(=O)c3ccccc3)[C@@H]3[C@]4(OC(C)=O)CO[C@@H]4C[C@H](O)[C@@]3(C)C(=O)[C@H](OC(C)=O)C(=C1C)C2(C)C)[C@@H](NC(=O)c1ccccc1)c1ccccc1)C(=O)N1CCC[C@H]1C(=O)N1CCC[C@H]1C(N)=O [BPP-PTX] ({Paclitaxel(2'-O-succinyl)}-EWPRPQIPP-NH2) | 6.21 | 8.02 | 7.91 | about 17% | ~22 | no body weight loss | ~2.8% | ~6.4 | – | – | – | – | – | – | – | – | – | – | – |
| CC(=O)O[C@H]1C(=O)[C@@]2(C)[C@H]([C@H](OC(=O)c3ccccc3)[C@]3(O)C[C@H](OC(=O)[C@H](O)[C@@H](NC(=O)c4ccccc4)c4ccccc4)C(C)=C1C3(C)C)[C@]1(OC(C)=O)CO[C@@H]1C[C@@H]2O [PTX, Paclitaxel] | – | – | – | about 52% | – | – | about 6.2% | – | 8.17 | 8.51 | 8.52 | No differences | no difference | no difference | induced apoptosis | induced apoptosis | condensed and fragmented | 0.26 | significantly lower; also recorded: clear reduction |
